Assays:
[1] = molecular target: NRAS G12C (Homo sapiens (Human), UniProt P01111+P62937, G12C); assay: Ras-Raf (BRAF RBD) disruption / FRET / MOA assay, NRAS G12C; assay type: biochemical; details: read-out: IC50* NRAS G12C FRET data
Procedure, shortened: (§1)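 TR-FRET read-out: a drop in ratio relative to DMSO wells marks disruption of the Ras:RAF complex, reported as IC50. Compounds (3-fold series, 10 points, top 30 μM final) incubated 3 h at 25° C before Eu-anti-His 10 nM and APC-anti-GST 50 nM, 1.5 h more.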

[2] = molecular target: NRAS WT (Homo sapiens (Human), UniProt P01111+P62937); assay: Ras-Raf (BRAF RBD) disruption / FRET / MOA assay, NRAS WT; assay type: biochemical; details: read-out: IC50* NRAS WT FRET data
Chain of NRAS WT (P01111 whole entry): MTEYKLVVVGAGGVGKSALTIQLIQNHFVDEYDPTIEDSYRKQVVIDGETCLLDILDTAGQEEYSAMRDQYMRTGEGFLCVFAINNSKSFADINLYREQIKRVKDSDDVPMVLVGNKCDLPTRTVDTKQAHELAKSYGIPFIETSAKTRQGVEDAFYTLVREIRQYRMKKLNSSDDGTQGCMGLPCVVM
Chain of NRAS WT (P62937 whole entry): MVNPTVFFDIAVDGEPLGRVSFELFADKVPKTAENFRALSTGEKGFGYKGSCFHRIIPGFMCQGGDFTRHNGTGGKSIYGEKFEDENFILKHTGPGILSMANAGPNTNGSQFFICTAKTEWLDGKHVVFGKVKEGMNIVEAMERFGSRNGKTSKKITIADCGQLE
Procedure, shortened: (§2)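 Compounds were tested as a 10-point 3-fold dilution series from 30 μM final for their ability to drive ternary complex formation between nucleotide-loaded Ras and cyclophilin A, displacing the BRAF RBD. After 3 h at 25° C., anti-His Eu-W1024 (10 nM) and anti-GST allophycocyanin (50 nM) were added for 1.5 h. A TR-FRET ratio decrease versus DMSO gave IC50.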

[3] = molecular target: KRAS Q61H (Homo sapiens (Human), UniProt P01116+P62937, Q61H); assay: Ras-Raf (BRAF RBD) disruption / FRET / MOA assay, KRAS Q61H; assay type: biochemical; details: Ras-Raf disruption/FRET/MOA assay; class symbols; read-out: KRAS Q61H FRET data IC50
Chain of KRAS Q61H (P01116-2 other isoform, or with tags, fused parts or gaps Q61H): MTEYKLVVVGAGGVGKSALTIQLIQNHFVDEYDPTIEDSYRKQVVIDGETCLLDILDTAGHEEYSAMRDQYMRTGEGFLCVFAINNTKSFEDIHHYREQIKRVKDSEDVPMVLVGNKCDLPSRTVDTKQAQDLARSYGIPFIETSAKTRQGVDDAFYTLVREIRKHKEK
Chain of KRAS Q61H (P62937 whole entry): as the sequence (P62937 whole entry) above
Procedure, shortened: as §2

[4] = tested on: NCI-H358 cells (K-Ras G12C); assay: Potency assay: pERK in NCI-H358 cells; assay type: cell-based, human; details: Homo sapiens, NCI-H358; H358 KRAS G12C; read-out: pERK EC50
Procedure, shortened: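 Inhibition of cellular pERK after a 4 h treatment, detected by AlphaLISA or In-Cell Western. IC50 from a four-parameter concentration-response fit.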

[5] = molecular target: K-Ras G13C (Homo sapiens (Human), UniProt P01116+P62937, G13C); assay: Ras-Raf (BRAF RBD) disruption / FRET / MOA assay, KRAS G13C; assay type: biochemical; details: KRAS G13C; Ras-Raf disruption/FRET/MOA assay; read-out: IC50* KRAS G13C FRET data
Chain of K-Ras G13C (P01116-2 other isoform, or with tags, fused parts or gaps G13C): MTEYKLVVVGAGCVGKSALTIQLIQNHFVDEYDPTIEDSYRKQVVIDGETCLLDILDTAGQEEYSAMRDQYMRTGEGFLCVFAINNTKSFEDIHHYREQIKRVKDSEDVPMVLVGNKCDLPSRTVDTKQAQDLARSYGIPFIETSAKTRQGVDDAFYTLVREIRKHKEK
Chain of K-Ras G13C (P62937 whole entry): as the sequence (P62937 whole entry) above
Procedure, shortened: as §1

[6] = molecular target: NRAS Q61R (Homo sapiens (Human), UniProt P01111+P62937, Q61R); assay: Ras-Raf (BRAF RBD) disruption / FRET / MOA assay, NRAS Q61R; assay type: biochemical; details: NRAS Q61R; Ras-Raf disruption/FRET/MOA assay; read-out: IC50* NRAS Q61R FRET data
Chain of NRAS Q61R (P01111 whole entry Q61R): as the sequence (P01111 whole entry) above, with Q61R counted along it
Chain of NRAS Q61R (P62937 whole entry): as the sequence (P62937 whole entry) above
Procedure, shortened: as §2

Chain of NRAS G12C (P01111 whole entry G12C): as the sequence (P01111 whole entry) above, with G12C counted along it
Chain of NRAS G12C (P62937 whole entry): as the sequence (P62937 whole entry) above

Compound | IC50 [1] [µM] | IC50 [2] [µM] | IC50 [3] [µM] | EC50 [4] [µM] | IC50 [5] [µM] | IC50 [6] [µM]
CCn1c(-c2cccnc2[C@H](C)OC)c2c3cc(ccc31)-c1nc(co1)C[C@H](NC(=O)[C@@H](COC1CN(C(=O)C#CC(C)(C)N(C)C)C1)C(C)C)C(=O)N1CCC[C@H](N1)C(=O)OCC(C)(C)C2 (atropisomer, axis not shown) [Example A675, (2R)-2-(((1-(4-(dimethylamino)-4-methylpent-2-ynoyl)azetidin-3-yl)oxy)methyl)-N-((6^3S,4S,Z)-1^1-ethyl-1^2-(2-((S)-1-methoxyethyl)pyridin-3-yl)-10,10-dimethyl-5,7-dioxo-6^1,6^2,6^3,6^4,6^5,6^6-hexahydro-1^1H-8-oxa-2(2,4)-oxazola-1(5,3)-indola-6(1,3)-pyridazinacycloundecaphane-4-yl)-3-methylbutanamide] | 0.01 to 0.1 | > 10 | > 10 | < 5 | > 10 | > 10
C=CC(=O)N1CCN(C(=O)N(C)[C@H](C(=O)N[C@H]2Cc3nc(cs3)-c3ccc4c(c3)c(c(-c3cccnc3[C@H](C)OC)n4CC(F)(F)F)CC(C)(C)COC(=O)[C@@H]3CCCN(N3)C2=O)C(C)C)CC12CC2 (atropisomer, axis not shown) [Example A679] | 0.01 to 0.1 | 0.01 to 0.1 | 0.01 to 0.1 | < 5 | 0.01 to 0.1 | 0.01 to 0.1
C=C(OC)C(=O)N1CC2(CCN(C(=O)N(C)[C@H](C(=O)N[C@H]3Cc4nc(cs4)-c4ccc5c(c4)c(c(-c4cccnc4[C@H](C)OC)n5CC)CC(C)(C)COC(=O)[C@@H]4CCCN(N4)C3=O)C(C)C)CC2)C1 (atropisomer, axis not shown) [Example A681] | 0.01 to 0.1 | 0.1 to 1 | 0.01 to 0.1 | < 5 | 0.1 to 1 | 0.1 to 1
C=C(F)C(=O)N1CC2(CCN(C(=O)N(C)[C@H](C(=O)N[C@H]3Cc4nc(cs4)-c4ccc5c(c4)c(c(-c4cccnc4[C@H](C)OC)n5CC)CC(C)(C)COC(=O)[C@@H]4CCCN(N4)C3=O)C(C)C)CC2)C1 (atropisomer, axis not shown) [Example A682] | 0.01 to 0.1 | 0.1 to 1 | 0.01 to 0.1 | < 5 | 0.1 to 1 | 0.1 to 1
C=CC(=O)N1CC2(CCN2C(=O)N(C)[C@H](C(=O)N[C@H]2Cc3cccc(c3)-c3ccc4c(c3)c(c(-c3cccnc3[C@H](C)OC)n4CC)CC(C)(C)COC(=O)[C@@H]3CCCN(N3)C2=O)C(C)C)C1 (atropisomer, axis not shown) [Example A684] | < 0.01 | 0.1 to 1 | 0.01 to 0.1 | < 5 | 0.1 to 1 | 0.1 to 1
C=CC(=O)N1C[C@H]2CN(C(=O)N(C)[C@H](C(=O)N[C@H]3Cc4nc(cs4)-c4ccc5c(c4)c(c(-c4cccnc4[C@H](C)OC)n5CC)CC(C)(C)COC(=O)[C@@H]4CCCN(N4)C3=O)C(C)C)[C@H]2C1 (atropisomer, axis not shown) [Example A686] | 0.01 to 0.1 | 0.1 to 1 | 0.01 to 0.1 | < 5 | 0.1 to 1 | 0.1 to 1
C=CC(=O)N1CC[C@H]2[C@@H](C1)CN2C(=O)N(C)[C@H](C(=O)N[C@H]1Cc2nc(cs2)-c2ccc3c(c2)c(c(-c2cccnc2[C@H](C)OC)n3CC)CC(C)(C)COC(=O)[C@@H]2CCCN(N2)C1=O)C(C)C (atropisomer, axis not shown) [Example A687] | 0.1 to 1 | 0.1 to 1 | 0.01 to 0.1 | < 5 | 0.1 to 1 | 0.1 to 1
CCn1c(-c2cccnc2[C@H](C)OC)c2c3cc(ccc31)-c1csc(n1)C[C@H](NC(=O)C[C@@H]1COC3(CN(C(=O)C#CC(C)(C)N(C)C)C3)O1)C(=O)N1CCC[C@H](N1)C(=O)OCC(C)(C)C2 (atropisomer, axis not shown) [Example A691] | < 0.01 | 1 to 10 | 1 to 10 | < 5 | 1 to 10 | 1 to 10

From patent US11566007B2, “Ras inhibitors” (Revolution Medicines, Inc., priority 2019, dated 2023)
